Our source for the Cmax and IC50 values is ChEMBL document CHEMBL4011582, “Human drug-induced liver injury severity is highly associated with dual inhibition of liver mitochondrial function and bile salt export pump” (Hepatology, 2014).

One series can be described thus: clinical. Particulars: human.
The next series concerns Liver. In kind it is ADME, mitochondria, Rattus norvegicus, Sprague-Dawley.
Another series deals with Bile salt export pump (Homo sapiens, UniProt O95342). In kind it is ADME.
Chain of Bile salt export pump (O95342 whole entry): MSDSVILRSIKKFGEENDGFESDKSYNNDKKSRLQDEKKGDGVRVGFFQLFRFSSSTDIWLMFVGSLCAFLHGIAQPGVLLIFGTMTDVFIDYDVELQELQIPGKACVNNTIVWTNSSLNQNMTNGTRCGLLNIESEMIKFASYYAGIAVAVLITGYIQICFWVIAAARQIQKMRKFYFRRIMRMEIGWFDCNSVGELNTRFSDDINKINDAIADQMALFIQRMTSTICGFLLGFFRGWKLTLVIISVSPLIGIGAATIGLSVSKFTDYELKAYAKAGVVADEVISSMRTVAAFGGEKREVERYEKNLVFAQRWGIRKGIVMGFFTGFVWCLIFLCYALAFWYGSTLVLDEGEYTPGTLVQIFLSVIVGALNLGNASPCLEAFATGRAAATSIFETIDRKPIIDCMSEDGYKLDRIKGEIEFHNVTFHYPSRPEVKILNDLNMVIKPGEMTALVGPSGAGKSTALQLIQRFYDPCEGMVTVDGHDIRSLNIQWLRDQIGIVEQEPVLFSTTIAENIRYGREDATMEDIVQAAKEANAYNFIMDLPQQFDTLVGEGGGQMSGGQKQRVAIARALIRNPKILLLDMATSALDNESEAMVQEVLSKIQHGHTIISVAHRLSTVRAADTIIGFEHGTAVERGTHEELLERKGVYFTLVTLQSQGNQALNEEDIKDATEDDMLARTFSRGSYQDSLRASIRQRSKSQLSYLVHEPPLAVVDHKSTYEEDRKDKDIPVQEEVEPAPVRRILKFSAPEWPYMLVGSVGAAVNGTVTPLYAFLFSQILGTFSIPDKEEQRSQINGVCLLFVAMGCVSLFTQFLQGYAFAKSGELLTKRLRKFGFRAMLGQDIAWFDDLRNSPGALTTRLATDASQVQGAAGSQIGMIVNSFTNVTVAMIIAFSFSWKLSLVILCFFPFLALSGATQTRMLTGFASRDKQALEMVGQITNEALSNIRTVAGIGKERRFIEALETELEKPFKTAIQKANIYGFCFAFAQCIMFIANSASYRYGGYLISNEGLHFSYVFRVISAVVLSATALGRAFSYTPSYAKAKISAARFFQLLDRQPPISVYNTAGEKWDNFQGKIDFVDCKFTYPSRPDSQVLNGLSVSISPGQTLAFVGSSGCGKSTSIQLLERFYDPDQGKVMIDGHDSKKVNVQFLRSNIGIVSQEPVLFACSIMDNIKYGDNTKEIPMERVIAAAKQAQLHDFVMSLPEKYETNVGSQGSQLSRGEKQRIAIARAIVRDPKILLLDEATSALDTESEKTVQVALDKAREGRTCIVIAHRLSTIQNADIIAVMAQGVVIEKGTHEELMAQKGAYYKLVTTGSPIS

What is called Cmax is the peak of the concentration-time curve. In the series “clinical”, `CCCc1nc2c(C)cc(-c3nc4ccccc4n3C)cc2n1Cc1ccc(-c2ccccc2C(=O)O)cc1` had a peak concentration (Cmax) of 851 nM.
What is called IC50 is the midpoint of a concentration-inhibition curve. `CC(C)(C)NC(=O)[C@@H]1C[C@@H]2CCCC[C@@H]2CN1C[C@@H](O)[C@H](Cc1ccccc1)NC(=O)[C@H](CC(N)=O)NC(=O)c1ccc2ccccc2n1` displayed a Cmax in the series “clinical” of 3360 nM. Also, in the series with Liver, the IC50 result is reported as “Non-Toxic”.
On the same counts, the results for `CC(C)CN(C[C@@H](O)[C@H](Cc1ccccc1)NC(=O)O[C@H]1CCOC1)S(=O)(=O)c1ccc(N)cc1` are 15200 nM and “Non-Toxic”.
For `CC(C)(C)NC(=O)[C@@H]1CN(Cc2cccnc2)CCN1C[C@@H](O)C[C@@H](Cc1ccccc1)C(=O)N[C@H]1c2ccccc2C[C@H]1O.O`, in that order: 11700 nM and “Non-Toxic”.
Compound `Cc1c(O)cccc1C(=O)N[C@@H](CSc1ccccc1)[C@H](O)CN1C[C@H]2CCCC[C@H]2C[C@H]1C(=O)NC(C)(C)C` yielded a Cmax in “clinical” of 7040 nM.
In turn, `CC(C)(C)NCC(O)c1ccc(O)c(CO)c1` (stereo unspecified) [ALBUTEROL] came in with a Cmax in “clinical” of 58 nM. Also, the IC50 result with Liver was “Non-Toxic”.
For `Oc1ncnc2[nH]ncc12` [ALLOPURINOL], the IC50 on Bile salt export pump (read-out: IC50) was > 100 µM.
Compound `CCCN(CCC)C(=O)Cc1c(-c2ccc(Cl)cc2)nc2ccc(Cl)cn12` [ALPIDEM] showed a Cmax in “clinical” of 285 nM.
With `C[C@H]1C[C@H]2[C@@H]3CCC4=CC(=O)C=C[C@]4(C)[C@@]3(Cl)[C@@H](O)C[C@]2(C)[C@@]1(O)C(=O)CO` [BECLOMETHASONE], the IC50 at Bile salt export pump (read-out: IC50) was 10.3 µM; in the series with Liver it was “Non-Toxic”. The same compound yielded a Cmax in the series “clinical” of 0.2 nM.
On to `CCc1oc2ccccc2c1C(=O)c1cc(Br)c(O)c(Br)c1` [BENZBROMARONE], for which the IC50 on Bile salt export pump (read-out: IC50) is 15.9 µM. Moreover, the Cmax in “clinical” turned out to be 4340 nM.
As for `CC(O)(CS(=O)(=O)c1ccc(F)cc1)C(=O)Nc1ccc(C#N)c(C(F)(F)F)c1` (stereo unspecified) [BICALUTAMIDE], the IC50 at Bile salt export pump (read-out: IC50) was found to be 29.3 µM. The compound further returned a peak concentration (Cmax) in “clinical” of 1970 nM.
Take `COc1ccccc1Oc1c(NS(=O)(=O)c2ccc(C(C)(C)C)cc2)nc(-c2ncccn2)nc1OCCO` [BOSENTAN]: at Bile salt export pump (read-out: IC50), the IC50 turned out to be 29 µM. In the series “clinical”, this compound yielded a Cmax of 7430 nM.
In the case of `CN(C)CCC(c1ccc(Br)cc1)c1ccccn1` (stereo unspecified) [BROMPHENIRAMINE], in the series “clinical”, the Cmax amounted to 36 nM. The IC50 entry with Liver is “Non-Toxic”.
As to `CCC(=O)O[C@]1(C(=O)CCl)[C@@H](C)C[C@H]2[C@@H]3CCC4=CC(=O)C=C[C@]4(C)[C@@]3(F)[C@@H](O)C[C@@]21C` [CLOBETASOL PROPIONATE], the peak level in “clinical” (Cmax) was 43 nM. For the same compound, in the series with Liver, the half-inhibitory concentration (IC50) result is given as “Non-Toxic”.
Turning to `CC(C)/N=c1\cc2n(-c3ccc(Cl)cc3)c3ccccc3nc-2cc1Nc1ccc(Cl)cc1` [CLOFAZIMINE], the highest level in “clinical” (Cmax) was 1480 nM. The IC50 result in the series with Liver is “Non-Toxic”.
`Clc1ccccc1C(c1ccccc1)(c1ccccc1)n1ccnc1` [CLOTRIMAZOLE] had a Cmax in “clinical” of 87 nM.
The same measure, in the same setting: next, `C#C[C@]1(O)CC[C@H]2[C@@H]3CCC4=Cc5oncc5C[C@]4(C)[C@H]3CC[C@@]21C` [DANAZOL]: 750 nM.
For `O=C(O)Cc1ccccc1Nc1c(Cl)cccc1Cl` [DICLOFENAC], at Bile salt export pump (read-out: IC50), the IC50 stood at 44 µM.
As for `Clc1ccc(COC(Cn2ccnc2)c2ccc(Cl)cc2Cl)cc1` (stereo unspecified) [ECONAZOLE], the half-maximal inhibitory concentration (IC50) at Bile salt export pump came to 13.4 µM. The compound further registered a Cmax in “clinical” of 1 nM.
As to `CCC(=O)O[C@H]1[C@H](O[C@@H]2[C@@H](C)[C@H](O[C@H]3C[C@@](C)(OC)[C@@H](O)[C@H](C)O3)[C@@H](C)C(=O)O[C@H](CC)[C@@](C)(O)[C@H](O)[C@@H](C)C(=O)[C@H](C)C[C@@]2(C)O)O[C@H](C)C[C@@H]1N(C)C.CCCCCCCCCCCCOS(=O)(=O)O` [ERYTHROMYCIN ESTOLATE], in “clinical”, the Cmax was determined as 4200 nM.
Turning to `C#C[C@]1(OC(C)=O)CC[C@H]2[C@@H]3CCC4=C[C@@H](OC(C)=O)CC[C@@H]4[C@H]3CC[C@@]21C` [ETHYNODIOL DIACETATE], the concentration for half-maximal inhibition (IC50) on Bile salt export pump (read-out: IC50) was found to be 62 µM. The peak level in “clinical” (Cmax) was 29 nM.
On the same counts, the results for `CC(C)OC(=O)C(C)(C)Oc1ccc(C(=O)c2ccc(Cl)cc2)cc1` [FENOFIBRATE] are 41 µM and 12100 nM.
As for `CC(C)(C)NC(=O)[C@H]1CC[C@H]2[C@@H]3CC[C@H]4NC(=O)C=C[C@]4(C)[C@H]3CC[C@]12C` [FINASTERIDE], the Cmax in the series “clinical” came to 99 nM. The half-maximal inhibitory concentration (IC50) result in the series on Liver is recorded as “Non-Toxic”.
On to `CC(C)C(=O)Nc1ccc([N+](=O)[O-])c(C(F)(F)F)c1` [FLUTAMIDE], for which the 50% inhibitory concentration (IC50) at Bile salt export pump (read-out: IC50) was 68 µM. This compound displayed a Cmax in the series “clinical” of 362 nM.
The compound `CC(C)n1c(/C=C/C(O)CC(O)CC(=O)O)c(-c2ccc(F)cc2)c2ccccc21` (stereo unspecified) [FLUVASTATIN] showed a Cmax in the series “clinical” of 663 nM. Moreover, in the series on Liver, the IC50 entry is reported as “Non-Toxic”.
On the same counts, the results for `Nc1nc(=O)c2nc(CNc3ccc(C(=O)N[C@@H](CCC(=O)O)C(=O)O)cc3)cnc2[nH]1` [FOLIC ACID] are 135 nM and “Non-Toxic”.
Regarding `NS(=O)(=O)c1cc(C(=O)O)c(NCc2ccco2)cc1Cl` [FUROSEMIDE], the Cmax in the series “clinical” is 18100 nM.
`COc1cc2ncnc(Nc3ccc(F)c(Cl)c3)c2cc1OCCCN1CCOCC1` [GEFITINIB] had a Cmax in the series “clinical” of 356 nM.
On to `COc1ccc(Cl)cc1C(=O)NCCc1ccc(S(=O)(=O)NC(=O)NC2CCCCC2)cc1` [GLYBURIDE], for which the highest level in the series “clinical” (Cmax) was 210 nM.
In “clinical”, `Cc1ccc(NC(=O)c2ccc(CN3CCN(C)CC3)cc2)cc1Nc1nccc(-c2cccnc2)n1` [IMATINIB] displayed a Cmax of 7090 nM. Moreover, the IC50 entry with Liver is on record as “Non-Toxic”.
On the same counts, the results for `CCCCC1=NC2(CCCC2)C(=O)N1Cc1ccc(-c2ccccc2-c2nnn[nH]2)cc1` [IRBESARTAN] are 3500 nM and “Non-Toxic”.
For the compound `CC1=C(/C=C/C(C)=C/C=C/C(C)=C\C(=O)O)C(C)(C)CCC1` [ISOTRETINOIN], the Cmax in the series “clinical” is 2870 nM.
Still for that read-out and setting: next, `CC(=O)N1CCN(c2ccc(OCC3COC(Cn4ccnc4)(c4ccc(Cl)cc4Cl)O3)cc2)CC1` (stereo unspecified) [KETOCONAZOLE]: 12500 nM.
`CS(=O)(=O)CCNCc1ccc(-c2ccc3ncnc(Nc4ccc(OCc5cccc(F)c5)c(Cl)c4)c3c2)o1` [LAPATINIB] came in with a Cmax in “clinical” of 4180 nM. In the series with Liver, the IC50 entry is recorded as “Non-Toxic”.
Take `N[C@@H](Cc1cc(I)c(Oc2ccc(O)c(I)c2)c(I)c1)C(=O)O` [LIOTHYRONINE]: the peak concentration (Cmax) in the series “clinical” was 108 nM.
For the compound `CCCCc1nc(Cl)c(CO)n1Cc1ccc(-c2ccccc2-c2nnn[nH]2)cc1` [LOSARTAN], the maximum concentration (Cmax) in the series “clinical” came out at 651 nM. Further, the IC50 result in the series on Liver is listed as “Non-Toxic”.
On the same counts, the results for `CC[C@H](C)C(=O)O[C@H]1C[C@@H](C)C=C2C=C[C@H](C)[C@H](CC[C@@H]3C[C@@H](O)CC(=O)O3)[C@H]21` [LOVASTATIN] are 25 nM and “Non-Toxic”.
As to `Cc1cccc(Nc2ccccc2C(=O)O)c1C` [MEFENAMIC ACID], at Bile salt export pump (read-out: IC50), the half-inhibitory concentration (IC50) was determined as 57 µM. In “clinical”, this compound came in with a Cmax of 26900 nM.
Regarding `Cc1ncc2n1-c1ccc(Cl)cc1C(c1ccccc1F)=NC2` [MIDAZOLAM], in “clinical”, the maximum concentration (Cmax) came out at 650 nM. The IC50 entry in the series on Liver is given as “Non-Toxic”.
`CCc1nn(CCCN2CCN(c3cccc(Cl)c3)CC2)c(=O)n1CCOc1ccccc1` [NEFAZODONE]: the concentration for half-maximal inhibition (IC50) at Bile salt export pump (read-out: IC50) turned out to be 7 µM. The highest level in “clinical” (Cmax) was 6800 nM.
In the series “clinical”, `COC(=O)C1=C(C)NC(C)=C(C(=O)OCCN(C)Cc2ccccc2)C1c1cccc([N+](=O)[O-])c1` (stereo unspecified) [NICARDIPINE] came in with a Cmax of 81 nM.
For the compound `COC(=O)C1=C(C)NC(C)=C(C(=O)OC)C1c1ccccc1[N+](=O)[O-]` [NIFEDIPINE], the IC50 at Bile salt export pump (read-out: IC50) was 69 µM; in the series on Liver it was “Non-Toxic”.
As for `COCCOC(=O)C1=C(C)NC(C)=C(C(=O)OC(C)C)C1c1cccc([N+](=O)[O-])c1` (stereo unspecified) [NIMODIPINE], the highest level in “clinical” (Cmax) was 195 nM.
`COC(=O)C1=C(C)NC(C)=C(C(=O)OCC(C)C)C1c1ccccc1[N+](=O)[O-]` (stereo unspecified) [NISOLDIPINE] showed a Cmax in the series “clinical” of 12.9 nM. Further, the IC50 result in the series on Liver is listed as “Non-Toxic”.
For `CCN(CC)CC#CCOC(=O)C(O)(c1ccccc1)C1CCCCC1` (stereo unspecified) [OXYBUTYNIN], in that order: 22 nM and “Non-Toxic”.
In the case of `CC(=O)O[C@H]1C(=O)[C@@]2(C)[C@H]([C@H](OC(=O)c3ccccc3)[C@]3(O)C[C@H](OC(=O)[C@H](O)[C@@H](NC(=O)c4ccccc4)c4ccccc4)C(C)=C1C3(C)C)[C@]1(OC(C)=O)CO[C@@H]1C[C@@H]2O` [PACLITAXEL], the IC50 entry in the series on Liver is given as “Non-Toxic”.
Compound `CC(COc1ccccc1)N(CCCl)Cc1ccccc1` (stereo unspecified) [PHENOXYBENZAMINE] gave a Cmax in the series “clinical” of 197 nM. The IC50 result in the series on Liver is “Non-Toxic”.
For `Cc1ccc(N(CC2=NCCN2)c2cccc(O)c2)cc1` [PHENTOLAMINE], in that order: 86 nM and “Non-Toxic”.
In turn, `CCc1ccc(CCOc2ccc(CC3SC(=O)NC3=O)cc2)nc1` (stereo unspecified) [PIOGLITAZONE] registered a Cmax in “clinical” of 2950 nM.
Still for that read-out and setting: in the case of `CC(=O)[C@H]1CC[C@H]2[C@@H]3CCC4=CC(=O)CC[C@]4(C)[C@H]3CC[C@]12C` [PROGESTERONE] it was 193 nM.
In the case of `CO[C@H]1/C=C/O[C@@]2(C)Oc3c(C)c(O)c4c(c3C2=O)C2=NC3(CCN(CC(C)C)CC3)NC2=C(NC(=O)/C(C)=C\C=C\[C@H](C)[C@H](O)[C@@H](C)[C@@H](O)[C@@H](C)[C@H](OC(C)=O)[C@@H]1C)C4=O` [RIFABUTIN], the Cmax in “clinical” worked out at 685 nM. For the same compound, the IC50 entry with Liver is listed as “Non-Toxic”.
For `CC(C)c1nc(CN(C)C(=O)N[C@H](C(=O)N[C@@H](Cc2ccccc2)C[C@H](O)[C@H](Cc2ccccc2)NC(=O)OCc2cncs2)C(C)C)cs1` [RITONAVIR], in that order: 19700 nM and “Non-Toxic”.
Consider `CNC(=O)c1cc(Oc2ccc(NC(=O)Nc3ccc(Cl)c(C(F)(F)F)c3)cc2)ccn1` [SORAFENIB], for which the highest level in the series “clinical” (Cmax) was 132 nM.
`CN1CCN(CCCN2c3ccccc3Sc3ccc(C(F)(F)F)cc32)CC1` [TRIFLUOPERAZINE] came in with a Cmax in the series “clinical” of 5.3 nM. The IC50 result in the series with Liver is reported as “Non-Toxic”.
The compound `Cc1c(C)c2c(c(C)c1O)CCC(C)(COc1ccc(CC3SC(=O)NC3=O)cc1)O2` (stereo unspecified) [TROGLITAZONE] yielded a Cmax in “clinical” of 6390 nM.
Still for that read-out and setting: next, `COc1cc(C(=O)NS(=O)(=O)c2ccccc2C)ccc1Cc1cn(C)c2ccc(NC(=O)OC3CCCC3)cc12` [ZAFIRLUKAST]: 1210 nM.
